Source: US9428568B2, “Compositions and methods for modulating cell-cell fusion via intermediate-conductance calcium-activated potassium channels” (BOEHRINGER INGELHEIM INTERNATIONAL GMBH, priority 2008, dated 2016)
Entries after “also recorded” stand apart in the source; their conditions may differ. Where two headings read alike, the source gives them in different places.

Experiments:
[1] = test system: bone marrow-derived macrophages from WT mice; experiment: Osteoclastogenesis / cell fusion of bone marrow-derived macrophages of WT mice under M-CSF+RANKL (TRAP+ osteoclast-like cells); assay type: cell-based, mouse
Description: Bone marrow- and spleen-derived mouse osteoclasts. These cells were generated from four- to twelve-week-old sk4^+/+ and sk4^−/− mice as previously described (Cui et al. (2007) Proc. Natl. Acad. Sci. USA 104:14436-14441; Epub 2007 Aug. 28). Bone marrow and spleen cells were isolated, mechanically dissociated and cultured at a density of 1.33×10^6 cells per cm^2 in MEM containing 10% heat-inactivated fetal bovine serum (HyClone, Logan, Utah), 100 units/ml penicillin-streptomycin (Gibco Invitrogen, Carlsbad, Calif.), 1% MEM vitamins, 1% glutamine, and 30 ng/ml M-CSF (PeproTech, Inc. Rocky Hill, N.J.). RANKL (PeproTech, Inc.) was added at a concentration of 40 ng/ml. Media was changed every three days. To assess the formation of an actin ring, a landmark of osteoclast activity, cells were cultured in the presence of M-CSF (20 ng/ml) and RANKL (40 ng/ml) on glass slides for 8 days, fixed and reacted with phalloidin-Alexa 568 and Topro-3. To further assess resorptive activity, cells were cultured on Osteologic slides that are coated with artificial bone made of calcium-phosphate crystals. After 8 days, cells were lysed and the substrates stained with silver nitrate according to the supplier's instructions. The resorbed areas on slides were recorded by histomorphometry.

[2] = test system: human PBMCs; experiment: Human osteoclastogenesis / cell fusion of PBMCs under M-CSF+RANKL stimulation (TRAP+ osteoclast-like cells); assay type: cell-based; details: for IC50: PBMC, read-out: inhibition of cell fusion, IC50; for osteoclast number / osteoclast surface area: dose-dependent
Method: Human osteoclasts. These cells were generated using normal peripheral blood blood (Allcells, Emeryville, Calif.). Peripheral blood monocytes were isolated using Ficoll-Paque and cultured at a concentration of 3×10^6 cells/ml in MEME supplemented with 10% FCS, recombinant human M-CSF (25 ng/ml) and recombinant human RANKL (40 ng/ml). The medium was changed once a week.

[3] = biological target: SK4 channels (Homo sapiens, UniProt O15554); details: cited from earlier work
[4] = general statement in the definition of SK4 channels

| Compound | IC50 ([2]; FIGS. 10A-B) | osteoclast number [2] | osteoclast surface area [2] | block of SK4 channels [3, 4] | further results |
| --- | --- | --- | --- | --- | --- |
| NC(=O)C(c1ccccc1)(c1ccc(F)cc1)c1ccc(F)cc1 [ICA-17043, 2,2-bis(4-fluorophenyl)-2-phenylacetamide] | 300 nM | decreased | decreased | – | osteoclastogenesis (surface area of TRAP+ osteoclast-like cells, POC relative to no compound control) ([1]; bone marrow-derived macrophages of WT (SK4+/+) mice, FIGS. 7A-B, five replicates): attenuated osteoclastogenesis in a dose dependent manner; also recorded: prevent osteoclastogenesis in a dose-dependent manner; concentration at which cell fusion was significantly inhibited (TRAP-stained images) ([1]; bone marrow-derived macrophages of WT mice, FIG. 7C): 0.36 µM; human osteoclastogenesis in vitro (surface area of TRAP+ osteoclast-like cells, POC relative to no compound control) ([2]; FIGS. 10A-B, four replicates): inhibited human osteoclastogenesis in vitro in a dose-dependent manner; also recorded: prevent osteoclastogenesis in a dose-dependent manner |
| CC(=O)N1CCN(c2ccc(OCC3COC(Cn4ccnc4)(c4ccc(Cl)cc4Cl)O3)cc2)CC1 (stereo not shown) [ketoconazole] | – | – | – | not blocked | – |
| Clc1ccccc1C(c1ccccc1)(c1ccccc1)n1cccn1 [TRAM-34, 1-[(2-chlorophenyl)diphenylmethyl]-1H-pyrazole] | 800 nM | decreased | decreased | – | – |
| Clc1ccccc1C(c1ccccc1)(c1ccccc1)n1ccnc1 [clotrimazole, 1-[(2-chlorophenyl)-diphenylmethyl]-1H-imidazole] | – | – | – | – | block of SK4 channels [3]: blocked |
| charybdotoxin | – | – | – | blocked | – |
| iberiotoxin | – | – | – | not blocked | – |
